Data taken from patent publication US8445636B2, “Antimicrobial and anticancer lipopeptides” (Yeda Research & Development Co. Ltd., priority 2003, dated 2013).
In brackets after ≈: the same amount, converted by molar mass. Read-outs that look alike come from different tables or passages of the source. Non-standard residues stand in square brackets, D forms with d. Residues, ends and D or L forms follow the SMILES beside them. *: point of attachment. Lauroyl = CCCCCCCCCCCC(=O)*

Key:
[1] = system: Aspergillus fumigatus ATCC 26430; assay: microbe, parasite or virus in culture; type: cell-based
[2] = Cytotoxicity, XTT viability, non-cancer cells; type: cell-based; conditions: mouse, non-cancer cell line, 24 h incubation, read-out: LC50, 3T3
In short: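 Cells (CL1, 22RV1 in RPMI-1640/10% FCS; NIH-3T3 fibroblasts in DMEM/10% bovine serum) seeded at 1×10^4/well, next day exposed to graded peptide concentrations for 24 h. Viability read by XTT; LC50 (50% cell death) taken from dose-dependent viability curves.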

[3] = system: Cryptococcus neoformans ATCC 66031; assay: microbe, parasite or virus in culture; type: cell-based
In short: (§1)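 Broth microdilution in RPMI 1640/0.165 M MOPS, 1×10^4 CFU/ml inoculum, 2-fold serial lipopeptide dilutions in water, pH 7.4 unless stated (pH 5.5 alternative). Incubated 24–48 h at 35 °C with agitation; growth read at A620. MIC = lowest concentration giving 100% growth inhibition.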

[4] = system: Candida albicans ATCC 10231; assay: microbe, parasite or virus in culture; type: cell-based
In short: as §1

[5] = system: Pseudomonas aeruginosa ATCC 27853; type: cell-based
In short: (§2)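 Broth microdilution: bacteria at 1×10^6 CFU/ml in LB medium (pH 7.4 unless stated; pH 5.5 also tested) mixed 1:1 with 2-fold serial lipopeptide dilutions in water, 18-20 h at 37° C. Growth read at 600 nm; MIC taken as lowest concentration giving 100% growth inhibition.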

[6] = system: Escherichia coli ATCC 25922; type: cell-based
In short: as §2

[7] = system: Staphylococcus aureus ATCC 6538P; type: cell-based
In short: as §2

[8] = system: Acinetobacter baumannii ATCC 19606; type: cell-based
In short: as §2

E. coli D21 = type: cell-based
[9] = system: Prostate cancer cell line CL1; assay: Cytotoxicity, XTT viability; type: cell-based, human; conditions: 24 h incubation, read-out: LC50, Prostate cancer CL1
Experimental: (§3) Prostate cancer cell lines (CL1 and 22RV1; ATCC, USA) were grown in RPMI-1640 supplemented with 10% FCS (Biological Industries, Beit Haemek, Israel). N1H-3T3 mouse fibroblast cell line (ATCC, USA) was grown in DMEM supplemented with 10% bovine serum. To test cytotoxicity against the cancer cells, aliquots of medium containing 1×10^4 cells were distributed into a 96-well plate (Falcon). After one day, the media were replaced with 90 μl of fresh media and 10 μl of a solution containing different concentrations of the peptides. The plate was then incubated for 24 h before adding to each well 50 μl of XTT reaction solution (Biological Industries, Beit Haemek, Israel); viability was determined as previously described (Papo et al., (2003) J. Biol. Chem. 278:21018-23). The LC50 (concentration at which 50% of the cells die) for each peptide was obtained from the dose-dependent cell viability curves.

[10] = system: Prostate cancer cell line 22RV1; assay: Cytotoxicity, XTT viability; type: cell-based, human; conditions: 24 h incubation, read-out: LC50, Prostate cancer 22RV1
Experimental: as §3

For CCCCCCCCCCCC(=O)N[C@H](CC(C)C)C(=O)N[C@@H](CCCNC(=N)N)C(=O)N[C@@H](CCCNC(=N)N)C(=O)N[C@H](CC(C)C)C(=O)N[C@H](CC(C)C)C(=O)N[C@@H](CCCNC(=N)N)C(=O)N[C@@H](CCCNC(=N)N)C(=O)N[C@H](CC(C)C)C(=O)N[C@H](CC(C)C)C(=O)N[C@@H](CCCNC(=N)N)C(=O)N[C@@H](CCCNC(=N)N)C(=O)N[C@H](CC(C)C)C(N)=O [lipopeptide 25, (CH3-(CH2)10-CO-)-D-Leu-Arg-Arg-D-Leu-D-Leu-Arg-Arg-D-Leu-D-Leu-Arg-Arg-D-Leu-NH2] (Lauroyl-[dL]RR[dL][dL]RR[dL][dL]RR[dL]-NH2), which MIC ([1]; ATCC 26430, pH 5.5, read-out: Minimal inhibitory concentrations, A. Fumig. With serum) is on record?
Its MIC is 50 µM (≈ 90.8 µg/mL).

And the MIC ([1]; ATCC 26430, pH 5.5, read-out: Minimal inhibitory concentrations, A. Fumig. Without serum)?
The MIC was 6.25 µM (≈ 11.3 µg/mL).

And the MIC ([1]; ATCC 26430, pH 7.4, read-out: Minimal inhibitory concentrations, A. Fumig. With serum)?
Its MIC is 50 µM (≈ 90.8 µg/mL).

And the MIC ([1]; ATCC 26430, pH 7.4, read-out: Minimal inhibitory concentrations, A. Fumig. Without serum)?
The MIC was 3.125 µM (≈ 5.67 µg/mL).

What about the CC50 at 24 h [2] of the same molecule?
Its CC50 at 24 h is 100 µM.

And the MIC ([3]; ATCC 66031, pH 5.5, read-out: Minimal inhibitory concentrations, C. Neofor. With serum)?
The MIC was 2.34 µM (≈ 4.25 µg/mL).

What about the MIC ([3]; ATCC 66031, pH 5.5, read-out: Minimal inhibitory concentrations, C. Neofor. Without serum) of the same molecule?
The MIC was under 0.78 µM.

And the MIC ([3]; ATCC 66031, pH 7.4, read-out: Minimal inhibitory concentrations, C. Neofor. With serum)?
Its MIC is under 0.78 µM.

And the MIC ([3]; ATCC 66031, pH 7.4, read-out: Minimal inhibitory concentrations, C. Neofor. Without serum)?
Its MIC is under 0.78 µM.

What about the MIC ([4]; ATCC 10231, pH 5.5, read-out: Minimal inhibitory concentrations, C. Albicans With serum) of the same molecule?
The MIC was 100 µM (≈ 182 µg/mL).

What about the MIC ([4]; ATCC 10231, pH 5.5, read-out: Minimal inhibitory concentrations, C. Albicans Without serum) of the same molecule?
Its MIC is 12.5 µM (≈ 22.7 µg/mL).

And the MIC ([4]; ATCC 10231, pH 7.4, read-out: Minimal inhibitory concentrations, C. Albicans With serum)?
The MIC was 100 µM (≈ 182 µg/mL).

What about the MIC ([4]; ATCC 10231, pH 7.4, read-out: Minimal inhibitory concentrations, C. Albicans Without serum) of the same molecule?
The MIC was 3.125 µM (≈ 5.67 µg/mL).

What about the “Minimal inhibitory concentrations, P. Aeruginosa ATCC 27853” value ([5]; ATCC 27853, pH 5.5) of the same molecule?
The value was 50 µM (≈ 90.8 µg/mL).

And the “Minimal inhibitory concentrations, P. Aeruginosa ATCC 27853” value ([5]; ATCC 27853, pH 7.4)?
The value was 50 µM (≈ 90.8 µg/mL).

And the “Minimal inhibitory concentrations, E. Coli ATCC 25922” value ([6]; ATCC 25922, pH 5.5)?
Its value is 100 µM (≈ 182 µg/mL).

What about the “Minimal inhibitory concentrations, E. Coli ATCC 25922” value ([6]; ATCC 25922, pH 7.4) of the same molecule?
The value was over 100 µM.

And the “Minimal inhibitory concentrations, S. aureus II ATCC 6538P” value ([7]; ATCC 6538, pH 5.5)?
The value was 50 µM (≈ 90.8 µg/mL).

And the “Minimal inhibitory concentrations, S. aureus II ATCC 6538P” value ([7]; ATCC 6538, pH 7.4)?
Its value is 12.5 µM (≈ 22.7 µg/mL).

And the “Minimal inhibitory concentrations, A. baumannii ATCC 19606” value ([8]; ATCC 19606, pH 5.5)?
Its value is 75 µM (≈ 136 µg/mL).

What about the “Minimal inhibitory concentrations, A. baumannii ATCC 19606” value ([8]; ATCC 19606, pH 7.4) of the same molecule?
Its value is over 100 µM.

And the “Minimal inhibitory concentrations, E. Coli D21” value (E. coli D21; D21, pH 5.5)?
Its value is 50 µM (≈ 90.8 µg/mL).

What about the “Minimal inhibitory concentrations, E. Coli D21” value (E. coli D21; D21, pH 7.4) of the same molecule?
Its value is 50 µM (≈ 90.8 µg/mL).

What about the CC50 [9] of the same molecule?
Its CC50 is 3.12 µM.

What about the CC50 [10] of the same molecule?
Its CC50 is 3.12 µM.
